The values that follow come from patent US20050208037A1, “Thioredoxin increases redox-cycling of anticancer agents thereby sensitizes cancer cells to apoptosis” (Board of Regents, The University of Texas System, priority 2003, published 2005).

The subject of data set [1] is Trx9 cells (MCF-7 clones expressing thioredoxin). The experiment in a line: Superoxide production in cell lysate by SOD-inhibitable reduction of ferricytochrome c. Format: biochemical, human. The settings on record: for inhibition of SOD-inhibitable rate of O2— generation: inhibitor 50 μM, then 10 μM doxorubicin. The method, then:
Determination of superoxide production by reduction of ferricytochrome c. Superoxide production was measured as superoxide dismutase (SOD) inhibitable reduction of ferricytochrome c (Azzi et al. 1975). Cells were sonicated in potassium phosphate buffer (0.05M, pH 7.8 plus 1 mM EDTA), centrifuged and the supernatant was used for the assay. To determine the superoxide generation in the cell lysate, the supernatant was incubated with 10 μM drug and 10 μM cytochrome c, with or without 1U SOD to determine SOD inhibitable rate. The specificity of thioredoxin mediated superoxide generation in the supernatant was detected by pre-incubation of cell lysates with anti-human thioredoxin antibody (American Diagnostica, Greenwich, Conn.) for 15 min. All reactions were performed in triplicate. The reduction of ferricytochrome c was measured both in kinetic and end point mode with path check on for 1 hr duration at a wavelength of 550 nm using a Spectramax 190 plate reader (Molecular Devices). Total protein was quantified using Bradford protein assay (Biorad) and the superoxide generation was determined per milligram of protein in the extracts.

In data set [2] the test system is p53 in Trx9 cells. The experiment in a line: Western blotting of p53 and phospho-p53 (ser-15). Format: cell-based, human. The conditions noted are these: daunomycin treated Trx9 cells, 4 hr. The source says:
Western blotting. Equal amounts of protein were resolved on 10% SDS-polyacrylamide gel electrophoresis, and transferred to nitrocellulose membrane (Hybond-ECL, Amersham Pharmacia Biotech) immunoblotted with anti-p53 or anti-p53 phospho ser-15 (Cell Signaling Technology, Beverly, Mass.) and visualized using Lumiglo system with antirabbit conjugated HRP. For cytochrome c determination the cytosolic protein was resolved on 15% SDS-PAGE and immunoblotted using anti-cytochrome c (BD Pharmingen, San Diego, Calif.) and visualized using the ECL system (Amersham Pharmacia Biotech, Piscataway, N.J.) and anti-mouse IgG conjugated HRP (Santa Cruz Biotech, California).
For orientation: In western blotting, separated proteins are transferred to a membrane and probed.

In data set [3] the test system is p53 in Trx9 cells. The experiment in a line: Electrophoretic mobility shift assay of p53 DNA binding. The data set is classed as cell-based, human. The settings on record: daunomycin treated Trx9 cells, 4 hr. The method, then:
Nuclear Extract preparation. Nuclear extract was prepared as described previously (Das, 2001). […] The extracts were then centrifuged at 14,000 rpm for 25 min and the supernatant was saved as nuclear extract in −70° C. for further experiments. Protein was quantified using Bradford protein assay (Biorad).
Electrophoretic Mobility shift assay (EMSA). For the EMSA the p53 consensus oligonucleotide was obtained from Genosys 5′-[…]-3′ (SEQ ID NO:9) and end labeled using T4 Poly nucleotide kinase (New England Biolabs, Beverly, Mass.) and [γ-^32P] ATP (Perkin Elmer, Boston, Mass.) in 10× kinase buffer supplied with the enzyme. […] The nuclear protein was separated by electrophoresis using 4% native polyacrylamide gel and 0.25× of TBE (Tris-Borate-EDTA) as running buffer. The gels were dried and exposed to Kodax Biomax X-ray film overnight.

Data set [4] deals with Trx9 cells (MCF-7 clones expressing thioredoxin). The experiment in a line: Flow cytometry, apoptosis as sub-G1 peak (propidium iodide). The data set is classed as cell-based, human. The conditions noted are these: daunomycin 1 μM, 16 h. The method, then:
(§1) Flow cytometry. […] The cells were washed again with PBS containing 1% FBS and resuspended in 500 μl of PBS followed by fixing in 7.5 ml of ice-cold ethanol 70% added dropwise while vortexing and stored in −20° C. overnight. After two washes with PBS containing 1% FBS and resuspended in same buffer and stained with Propidium Iodide 10 μg/ml (Sigma, St. Louis, Mo.) in the presence of RNase 250 μg/ml at 37° C. for 30 min in dark. Stained cells were analyzed using Epics Elite ESP Coulter, using argon laser at 488 nm wavelength. Flow cytometric results were analyzed and apoptosis was defined as ‘sub G1’ peak (Gutierrez, 2000) using Multicycle software.
(Flow cytometry measures light scatter and fluorescence of single cells or particles in a stream.)

In data set [5] the test system is vector cells (vector-only MCF-7). Described as above. The data set is classed as cell-based, human. The settings on record: daunomycin 1 μM, 16 h. The method, then:
as §1

The test system of data set [6] is Trx9 cells (MCF-7 clones expressing thioredoxin). The data set is described as follows: Cell proliferation assay by BrdU ELISA. The data set is classed as cell-based, human. The settings on record: daunomycin 1 μM, 16 h. As for the experimental part: (§2) Cell proliferation assay. Cell proliferation assay by BrdU ELISA kit was purchased from Roche Molecular Biochemicals (Indianapolis, Ind.). For this assay cells were seeded to a final density of 5000 per well in 96 well plates and allowed to attach overnight, […] BrdU for 4-6 hr, and detected using Tetramethylbenzedine as substrate with Anti-BrdU POD at 370 nm and reference wavelength 492 nm in Spectramax 190 plate reader.
(In general: Incorporation of labelled thymidine or its analogues reports DNA synthesis.)

In data set [7] the test system is vector cells (vector-only MCF-7). The experiment in a line: Cell proliferation assay by BrdU ELISA. Format: cell-based, human. The settings on record: daunomycin 1 μM, 16 h. As for the experimental part:
as §2

Data set [8] deals with Trx9 cells (MCF-7 clones expressing thioredoxin). The data set is described as follows: XTT cytotoxicity assay. Format: cell-based, human. The conditions noted are these: percent control of untreated cells. The method, then: (§3) XTT assay. Cytotoxicity was estimated using XTT based in vitro toxicology assay kit, (Sigma Chemical Co.). This assay is based on the metabolic capacity of viable cells; the mitochondrial dehydrogenases convert XTT yielding orange formazan crystal soluble in aqueous media that is estimated spectrophotmetrically at 450 nm and a reference wavelength at 690. The assay was performed 48 hr post treatment; cells were washed and XTT added in media free of serum and phenol red, incubated for 2-4 hr and analyzed in Spectramax 190 plate reader.

For data set [9], the system named is vector cells (vector-only MCF-7). The data set is described as follows: XTT cytotoxicity assay. The data set is classed as cell-based, human. The settings on record: percent control of untreated cells. The method, then: as §3
The test system of data set [10] is Trx9 cells (MCF-7 clones expressing thioredoxin). The data set is described as follows: Colony formation assay (clonogenic survival). The data set is classed as cell-based, human. The conditions noted are these: 0.1 μM daunomycin, end of 14 days. As for the experimental part: (§4) Colony formation assay. For determination of clonogenic survival, the cells were seeded to a final density of 1×10^6 in 100 mm dishes, allowed to attach overnight, and the following day treated with the appropriate concentration of the drug for 48 hr. The cells were trypsinized, counted and seeded to final density of 25,000 viable cells in 100 mm dishes and allowed to grow for 14 days followed by washing and staining with crystal violet.

Data set [11] has as its system vector cells (vector-only MCF-7). The experiment in a line: Colony formation assay (clonogenic survival). Format: cell-based, human. The conditions noted are these: 0.1 μM daunomycin, end of 14 days. As for the experimental part:
as §4

The test system of data set [12] is Trx9 cells (MCF-7 clones expressing thioredoxin). The data set is described as follows: TUNEL assay. The data set is classed as cell-based, human. The settings on record: Trx9 compared to vector cells; daunomycin 1 μM, 16 h.
Data set [13] has the same test system. The experiment in a line: Cytochrome c release (cytosolic extract, western blotting). The data set is classed as cell-based, human. The settings on record: Trx9 compared to vector-only cells; daunomycin 1 μM, 16 h. The method, then:
Preparation of cytosolic extract by sub cellular fractionation. Cytosolic preparation was done as described earlier (Yang et al., 1997). Briefly, cells were harvested by centrifugation (600×g) and washed once with ice cold PBS for 10 min at 4° C. The cell pellets were resuspended in five volumes of fractionation buffer (250 mM sucrose containing 20 mM HEPES-KOH, 10 mM KCl, 1.5 mM each of sodium-EDTA and sodium- EGTA, 1 mM MgCl2, 1 mM dithiothreitol, 0.1 mM PMSF and cocktail of protease inhibitors) and incubated on ice for 30 min. Cells were then homogenized using a dounce homogenizer with type B pestle and centrifuged twice at 800×g for 10 min at 4° C. The supernatant was centrifuged at 10,000×g for 15 min at 4° C., and the resulting supernatant was then transferred to fresh tube and centrifuged at 100,000×g […] for 1 hr at 4° C. The final supernatant obtained in this centrifugation was designated as cytosolic extract and was stored in −70° C. for further analysis.
Western blotting. Equal amounts of protein were resolved on 10% SDS-polyacrylamide gel electrophoresis, and transferred to nitrocellulose membrane (Hybond-ECL, Amersham Pharmacia Biotech) immunoblotted with anti-p53 or anti-p53 phospho ser-15 (Cell Signaling Technology, Beverly, Mass.) and visualized using Lumiglo system with antirabbit conjugated HRP. […]

The target in data set [14] is T1, E. coli thioredoxin reductase-thioredoxin system (Escherichia coli, UniProt P0A9P4).
T1 construct: purchased American Diagnostica Inc (thioredoxin reductase); Promega Inc (thioredoxin)
The data set is described as follows: Superoxide detection by cytochrome c reduction assay with thioredoxin system. The data set is classed as biochemical. The method, then:
Superoxide detection by cytochrome c reduction assay. Superoxide (O2—) generated in the process of redox-cycling was detected by SOD inhibitable rate of ferricytochrome c reduction (Das et al., 2000). The reaction mixture contained 0.05 M potassium phosphate buffer (pH 7.78), 1 mM EDTA, 10 μM cytochrome c and 200 μM NADPH. […] The rate of […] of cytochrome c was measured at 550 nm for 0-15 minutes using Shimadzu UV-1601PC in kinetic mode. Reaction blank contained potassium phosphate buffer, cytochrome c and NADPH with or without SOD, and controls included 0.35-0.7 μg TR and /or Trx in buffer. All reactions were performed in triplicate.

In data set [15] the test system is A549 cells. The experiment in a line: ROS detection by DCF-DA fluorescence. The data set is classed as cell-based, human. The settings on record: daunomycin only (1 μM). As for the experimental part:
In situ detection of superoxide by fluorescent probe DiCarboxyFluorescein-DiAcetate (DCF-DA). […] Cells were pre-incubated with 20 μM DCF-DA (Sigma, St. Louis, Mo.) in 20 mM Hepes in Phosphate Buffered Saline (PBS) containing bovine serum albumin (BSA, 5 mg/ml) at 37° C. for 30 min followed by washing with PBS buffer, and the drug was added and observed for 10-15 min in a Nikon laser confocal microscope using laser beam wavelength 488 nm analyzed by Ultraview software (Perkin-Elmer).

For data set [16] the following is noted: cited from earlier work.

Structures can show the parent of a compound that is named as a salt.

T1 sequence (P0A9P4 2-321): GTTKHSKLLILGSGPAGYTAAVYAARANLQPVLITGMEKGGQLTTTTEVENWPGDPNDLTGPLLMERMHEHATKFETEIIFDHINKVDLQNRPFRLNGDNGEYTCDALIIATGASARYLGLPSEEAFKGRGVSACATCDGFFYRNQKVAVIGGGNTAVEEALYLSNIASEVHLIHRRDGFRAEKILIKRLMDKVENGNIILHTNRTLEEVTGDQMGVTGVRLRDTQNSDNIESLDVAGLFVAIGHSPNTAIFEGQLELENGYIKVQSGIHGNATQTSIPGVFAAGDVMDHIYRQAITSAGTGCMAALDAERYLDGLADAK

Turning to `Nn1nnc2ccccc21` [ABT, 1-Aminobenzotriazole], in data set [1] (Trx9 cells), the “inhibition of SOD-inhibitable rate of O2— generation” value was found to be 54%.

In the case of `c1ccc2c(c1)[I+]c1ccccc1-2` [DPIC, dipheyleneiodonium], in [1] (Trx9 cells, DPIC 25 or 50 μM pre-incubation, 10 μM doxorubicin), the “effect on generation of O2—” value is “inhibited generation of O2—”. Also, the “effect on p53 ser-15 phosphorylation” value in [2] is “abolished”. The “effect on p53 DNA binding” value in data set [3] (DPIC 50 μM) was “abolished”.

`O=C(O)c1ccc(/C2=C3\C=CC(=N3)/C(c3ccc(C(=O)O)cc3)=c3/cc/c4[n]3[Mn]([Cl])[n]3c2ccc3/C(c2ccc(C(=O)O)cc2)=C2/C=CC(=N2)\C=4c2ccc(C(=O)O)cc2)cc1` [MnTBAP]: in [2], the “effect on p53 ser-15 phosphorylation” value was “no appreciable decrease”. For the same compound, the “reduction in p53 DNA binding activity (densitometric analysis)” value in data set [3] was “about 30%”.

In the case of `Nc1ncnc2c1ncn2[C@@H]1O[C@H](COP(=O)(O)O)[C@@H](O)[C@H]1OP(=O)(O)O` [PAMP, 2′-Phospho-5′-AMP], in data set [1] (Trx9 cells), the “inhibition of SOD-inhibitable rate of O2— generation” value is recorded as 76%.

On to `COc1cccc2c1C(=O)c1c(O)c3c(c(O)c1C2=O)C[C@@](O)(C(C)=O)C[C@@H]3O[C@H]1C[C@H](N)[C@H](O)[C@H](C)O1` [daunomycin, 5,12-Naphthacenedione, (8S-cis)-8-acetyl-10-[(3-amino-2,3,6-trideoxy-a-L-lyxo-hexanopyranosyl)oxy]-7,8,9,10-tetrahydro-6,8,11-trihydroxy-10-methoxy-, hydrochloride], for which the “percentage of apoptotic cells (sub-G1)” value in [4] amounted to 23%; in data set [5], 6%. Also, the “level of BrdU incorporated” value turned out to be 60% in [6] and 76% in data set [7]. The “percentage of cell death (XTT)” value in [8] was 48%; in data set [9], 16%. Also, the clonogenic survival result in [10] was “failed to propagate into colonies”; in data set [11] it was “able to propagate into several colonies”. In [12], the TUNEL-positive cells entry is reported as “higher number of TUNEL positive Trx9 cells”. Also, the cytochrome c release entry in data set [13] is recorded as “increased cytochrome c release”. The “O2— production” value in [1] (Trx9 compared to vector-transfected cells, 10 μM drug) is recorded as “significantly higher level of O2—”. The “levels of O2— generated” value in data set [14] (drug 10 μM with thioredoxin reductase alone) is recorded as “significantly higher levels of O2—”. For the same compound, the “SOD inhibitable rate of ferricytochrome c reduction” value in data set [14] (drug alone, 10 μM) is given as “did not show significant level”. In data set [15], the “ROS generation (DCF-DA)” value is listed as “ROS generation was increased”. Moreover, in data set [16] (in vivo), the “secreted into the bile” value is recorded as about 40%. Further, the elimination half-life result in data set [16] (intravenous) is “about 19 hr”. For the same compound, the absorption entry in data set [16] (oral) is “poor”.

Take `COc1cccc2c1C(=O)c1c(O)c3c(c(O)c1C2=O)C[C@@](O)([C@H](C)O)C[C@@H]3O[C@H]1C[C@H](N)[C@H](O)[C@H](C)O1` [daunorubicinol]: the “half-life of active metabolite” value in [16] (metabolite of daunorubicin) is listed as “about 27 hr”.
